One test concerns the target Cholinesterase (Equus caballus, UniProt P81908). The experiment in a line: Inhibition of horse serum BuChE using butyrylthiocholine iodide as substrate preincubated for 20 mins followed by substrate addition by Ellman's method. The test is classed as ADME.
Test [1] is described as follows: Selectivity index, ratio of IC50 for horse serum BuChE to IC50 for electric eel AChE.
The target in test [2] is T1, Acetylcholinesterase (Electrophorus electricus, UniProt O42275). The experiment in a line: Inhibition of electric eel AChE using acetylthiocholine iodide as substrate preincubated for 20 mins followed by substrate addition by Ellman's method. (In general: DTNB colorimetry detects thiols as they appear.)
T1 sequence (O42275 whole entry): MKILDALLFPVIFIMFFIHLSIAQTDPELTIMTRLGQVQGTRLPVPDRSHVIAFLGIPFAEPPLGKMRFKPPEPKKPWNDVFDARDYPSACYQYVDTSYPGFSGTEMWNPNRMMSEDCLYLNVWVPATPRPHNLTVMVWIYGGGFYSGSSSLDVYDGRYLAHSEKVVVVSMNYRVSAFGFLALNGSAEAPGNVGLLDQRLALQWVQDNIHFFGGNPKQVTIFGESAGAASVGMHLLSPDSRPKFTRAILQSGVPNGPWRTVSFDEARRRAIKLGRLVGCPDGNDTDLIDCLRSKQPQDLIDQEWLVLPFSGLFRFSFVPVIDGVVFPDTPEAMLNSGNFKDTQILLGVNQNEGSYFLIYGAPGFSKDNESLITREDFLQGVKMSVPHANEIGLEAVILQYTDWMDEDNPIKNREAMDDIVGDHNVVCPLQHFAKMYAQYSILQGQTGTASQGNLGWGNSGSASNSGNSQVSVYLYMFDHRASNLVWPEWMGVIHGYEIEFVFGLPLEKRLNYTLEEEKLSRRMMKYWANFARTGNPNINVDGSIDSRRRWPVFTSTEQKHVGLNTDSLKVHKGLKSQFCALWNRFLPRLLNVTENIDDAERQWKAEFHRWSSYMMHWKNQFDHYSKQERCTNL
Test [3] has as its system Rattus norvegicus. The experiment in a line: Cognition enhancement activity in Charles Foster albino rat model of spatial working memory assessed as escape latency at 30 mg/kg, po for administered from day 1 to 10 measured 1 hr post last dose on day 8 by Morris water maze test (reference value: 16.97 +/- 0.8 sec). Format: functional.
Test [4] has as its system Rattus norvegicus. The experiment in a line: Cognition enhancement activity in Charles Foster albino rat model of spatial working memory assessed as escape latency at 30 mg/kg, po for administered from day 1 to 10 measured 1 hr post last dose on day 7 by Morris water maze test (reference value: 17.45 +/- 0.62 sec). The test is classed as functional.
In test [5] the test system is Rattus norvegicus. Put plainly: Cognition enhancement activity in Charles Foster albino rat model of spatial working memory assessed as escape latency at 30 mg/kg, po for administered from day 1 to 10 measured 1 hr post last dose on day 10 by Morris water maze test (reference value: 14.12 +/- 0.78 sec). Format: functional.
The nature of test [6]: Antioxidant activity assessed as H2O2 radical scavenging activity at 10 to 100 ug/ml incubated for 10 mins by UV-Visible spectrophotometric method. The test is classed as functional.
Test [7] can be described thus: Antioxidant activity assessed as DPPH radical scavenging activity at 10 to 100 ug/ml incubated for 30 mins under dark condition. The test is classed as functional.
The test system of test [8] is Rattus norvegicus. The experiment in a line: Cognition enhancement activity in Charles Foster albino rat model of spatial reference memory assessed as increase in time spent in target quadrant during probe trial at 10 to 30 mg/kg, po administered from day 1 to 4 measured 1 hr post last dose on day 4 by Morris water maze test. The test is classed as functional, organism-based.

Test [9] deals with T1, Acetylcholinesterase. The experiment in a line: Uncompetitive inhibition of electric eel AChE using varying levels of acetylthiocholine iodide substrate preincubated for 20 mins followed by substrate addition by Lineweaver-Burk plot analysis.
The test system of test [10] is Rattus norvegicus. The experiment in a line: Cognition enhancement activity in Charles Foster albino rat model of spatial working memory assessed as escape latency at 20 mg/kg, po for administered from day 1 to 10 measured 1 hr post last dose on day 8 by Morris water maze test (reference value: 16.97 +/- 0.8 sec). Format: functional.
For test [11], the system named is Rattus norvegicus. Put plainly: Cognition enhancement activity in Charles Foster albino rat model of spatial working memory assessed as escape latency at 30 mg/kg, po for administered from day 1 to 10 measured 1 hr post last dose on day 9 by Morris water maze test (reference value: 17.38 +/- 0.79 sec). The test is classed as functional.
In test [12] the test system is Rattus norvegicus. Put plainly: Cognition enhancement activity in Charles Foster albino rat model of spatial working memory assessed as escape latency at 10 mg/kg, po for administered from day 1 to 10 measured 1 hr post last dose on day 10 by Morris water maze test (reference value: 14.12 +/- 0.78 sec). The test is classed as functional.
In test [13] the test system is Rattus norvegicus. Put plainly: Cognition enhancement activity in Charles Foster albino rat model of spatial working memory assessed as escape latency at 20 mg/kg, po for administered from day 1 to 10 measured 1 hr post last dose on day 10 by Morris water maze test (reference value: 14.12 +/- 0.78 sec). Format: functional.
Test [14] deals with Rattus norvegicus. Put plainly: Cognition enhancement activity in Charles Foster albino rat model of spatial working memory assessed as escape latency at 10 mg/kg, po for administered from day 1 to 10 measured 1 hr post last dose on day 8 by Morris water maze test (reference value: 16.97 +/- 0.8 sec). The test is classed as functional.
Test [15] concerns Rattus norvegicus. The experiment in a line: Cognition enhancement activity in Charles Foster albino rat model of spatial working memory assessed as escape latency at 20 mg/kg, po for administered from day 1 to 10 measured 1 hr post last dose on day 7 by Morris water maze test (reference value: 17.45 +/- 0.62 sec). Format: functional.
Test [16] concerns Rattus norvegicus. Put plainly: Cognition enhancement activity in Charles Foster albino rat model of spatial working memory assessed as escape latency at 20 mg/kg, po for administered from day 1 to 10 measured 1 hr post last dose on day 9 by Morris water maze test (reference value: 17.38 +/- 0.79 sec). Format: functional.
In test [17] the test system is Rattus norvegicus. The experiment in a line: Cognition enhancement activity in Charles Foster albino rat model of spatial working memory assessed as escape latency at 10 mg/kg, po for administered from day 1 to 10 measured 1 hr post last dose on day 9 by Morris water maze test (reference value: 17.38 +/- 0.79 sec). Format: functional.
Test [18] has as its system Rattus norvegicus. Put plainly: Ex vivo inhibition of AChE in Charles Foster albino rat brain assessed as substrate hydrolyzed per mg protein at 30 mg/kg, po measured after 1 hr using acetylthiocholine iodide as substrate by Ellman's method (reference value: 46.56 +/- 0.66 nmol/min). Format: functional.
In test [19] the test system is Rattus norvegicus. The experiment in a line: Cognition enhancement activity in Charles Foster albino rat model of spatial working memory assessed as escape latency at 10 mg/kg, po for administered from day 1 to 10 measured 1 hr post last dose on day 7 by Morris water maze test (reference value: 17.45 +/- 0.62 sec). The test is classed as functional.
In test [20] the test system is Rattus norvegicus. Put plainly: Cognition enhancement activity in Charles Foster albino rat model of spatial reference memory assessed as decrease in escape latency at 20 to 30 mg/kg, po administered from day 1 to 2 measured 1 hr post last dose on day 2 by Morris water maze test. Format: functional, organism-based.
Test [21] relates to Rattus norvegicus. The experiment in a line: Cognition enhancement activity in Charles Foster albino rat model of spatial reference memory assessed as increase in time spent in target quadrant during probe trial at 10 mg/kg, po for 4 days administered from day 1 to 4 measured 1 hr post last dose on day 4 by Morris water maze test. The test is classed as functional, organism-based.

Test [22] has as its system Rattus norvegicus. Put plainly: Cognition enhancement activity in Charles Foster albino rat model of spatial reference memory assessed as decrease in escape latency at 10 mg/kg, po administered from day 1 to 2 measured 1 hr post last dose on day 2 by Morris water maze test. The test is classed as functional, organism-based.

pIC50, pKi: −log10 of the molar value. Activity calls are given as the source filed them. The calls are words filed in the database; no cut-off is given here.

Chain of Cholinesterase (P81908 whole entry): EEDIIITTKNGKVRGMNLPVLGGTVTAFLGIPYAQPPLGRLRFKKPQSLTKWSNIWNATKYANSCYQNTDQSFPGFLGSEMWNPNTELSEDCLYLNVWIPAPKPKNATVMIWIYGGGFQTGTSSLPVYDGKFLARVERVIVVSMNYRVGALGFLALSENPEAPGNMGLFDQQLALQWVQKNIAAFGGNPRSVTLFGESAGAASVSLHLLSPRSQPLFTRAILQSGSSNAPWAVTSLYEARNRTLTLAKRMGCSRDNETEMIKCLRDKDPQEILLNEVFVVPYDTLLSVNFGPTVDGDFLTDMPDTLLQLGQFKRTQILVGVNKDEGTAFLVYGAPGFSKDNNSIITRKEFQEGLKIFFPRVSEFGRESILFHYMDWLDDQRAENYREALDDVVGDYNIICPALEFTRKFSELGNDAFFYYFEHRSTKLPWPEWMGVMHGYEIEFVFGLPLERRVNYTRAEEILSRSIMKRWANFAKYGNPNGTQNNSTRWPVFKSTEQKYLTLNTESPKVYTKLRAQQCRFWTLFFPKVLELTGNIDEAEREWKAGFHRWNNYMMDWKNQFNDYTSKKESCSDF

One may read the pIC50 as the IC50 on a negative log10 scale, so that one unit is a factor of ten. On to `O=C(O)c1ccc(/N=C/c2ccccc2[N+](=O)[O-])cc1`, for which the pIC50 against Cholinesterase was 3.41; against Acetylcholinesterase [2] it was 5.22. Besides, the Ratio IC50 in test [1] was found to be 64.5.

As to `O=C(O)c1ccc(/N=C/c2ccccc2)cc1`, the pIC50 is 3.30 against Cholinesterase and 4.90 against Acetylcholinesterase [2]. Moreover, in test [1], the Ratio IC50 was 39.7.

The term pKi denotes the Ki on a negative log10 scale, so that one unit is a factor of ten. Low values mean a high Ki, high ones a low Ki. In the case of `COc1cc(/N=C/c2cc(OC)c(OC)c(OC)c2)cc(OC)c1`, the Time in the test on Rattus norvegicus [3] is 15.23 s; with Rattus norvegicus [4] it was 16.87 s; with Rattus norvegicus [5], 8.92 s; in the test with Rattus norvegicus [10], 15.69 s; in the test with Rattus norvegicus [11] it was 10.37 s; with Rattus norvegicus [12] it was 10.2 s. Also, the Time in the test with Rattus norvegicus [13] amounted to 8.87 s; in the test on Rattus norvegicus [14] it was 15.45 s; in the test with Rattus norvegicus [15], 16.95 s; with Rattus norvegicus [16], 12.23 s; in the test with Rattus norvegicus [17] it was 15.12 s; in the test with Rattus norvegicus [19] it was 17.57 s. Further, the results for the negative-log IC50 (pIC50) at Cholinesterase and against Acetylcholinesterase [2] were 3.48 and 6.09, respectively. For the same compound, the outcome (in [6]; in test [7]; with Rattus norvegicus [8]; in the test on Rattus norvegicus [20]) was Active. On Acetylcholinesterase [9], this compound had a negative logarithm of the Ki (pKi) of 6.14. In [1], the Ratio IC50 worked out at 402. Moreover, the Activity in the test on Rattus norvegicus [18] stood at 30.85 nmol/min.

With `COc1cc(/C=N/c2ccc(C(=O)O)cc2)cc(OC)c1OC`, the pIC50 at Cholinesterase was 3.42; at Acetylcholinesterase [2], 4.94. In addition, in test [1], the Ratio IC50 was 32.7.

On to `COc1cc2c(cc1OC)C(=O)C(CC1CCN(Cc3ccccc3)CC1)C2` (configuration not stated) [DONEPEZIL], for which the outcome (in test [6]; in the test on Rattus norvegicus [21]; in test [7]; in the test with Rattus norvegicus [22]) was Active. In addition, the Time in the test on Rattus norvegicus [12] amounted to 7.33 s; in the test on Rattus norvegicus [14] it was 14.38 s; with Rattus norvegicus [17] it was 7.78 s; in the test with Rattus norvegicus [19], 16.88 s.

As for `COc1ccc(/C(=N\c2cc(OC)cc(OC)c2)c2ccccc2)cc1`, the figures for the negative logarithm of the IC50 (pIC50) at Cholinesterase and on Acetylcholinesterase [2] were 3.55 and 5.36, respectively. The Ratio IC50 in test [1] is 65.1.

With `COc1cc(/C(C)=N/c2ccc(C(=O)O)cc2)ccc1O`, the pIC50 against Cholinesterase is 3.08; against Acetylcholinesterase [2], 5.41. For the same compound, the Ratio IC50 in test [1] is 214.

Turning to `COc1cc(/N=C/c2ccc([N+](=O)[O-])cc2)cc(OC)c1`, the pIC50 at Cholinesterase was 3.34; against Acetylcholinesterase [2], 5.15. The Ratio IC50 in [1] turned out to be 64.5.

`COc1cc(/N=C/c2ccccc2O)cc(OC)c1`: the pIC50 on Cholinesterase is 3.13; on Acetylcholinesterase [2], 4.59. Moreover, the Ratio IC50 in test [1] turned out to be 29.2.

Take `O=C(O)c1ccc(/N=C/c2ccc([N+](=O)[O-])cc2)cc1`: the negative-log IC50 (pIC50) against Cholinesterase was 3.66; against Acetylcholinesterase [2], 5.23. Further, the Ratio IC50 in test [1] stood at 36.5.

As to `O=C(O)c1ccc(/N=C/c2ccccc2O)cc1`, the figures for the pIC50 at Cholinesterase and on Acetylcholinesterase [2] were 3.14 and 4.74, respectively. For the same compound, the Ratio IC50 in test [1] turned out to be 39.8.

As to `COc1ccc(/C(=N\c2ccc(C(=O)O)cc2)c2ccccc2)cc1`, the pIC50 at Cholinesterase was 3.54; against Acetylcholinesterase [2] it was 5.22. In test [1], the Ratio IC50 turned out to be 47.9.

Turning to `COc1cc(/N=C/c2ccccc2[N+](=O)[O-])cc(OC)c1`, the values for the pIC50 against Cholinesterase and on Acetylcholinesterase [2] were 3.34 and 4.84, respectively. For the same compound, the Ratio IC50 in [1] is 31.8.

Source of the values: ChEMBL document CHEMBL3877326, “Design, synthesis and evaluation of some N-methylenebenzenamine derivatives as selective acetylcholinesterase (AChE) inhibitor and antioxidant to enhance learning and memory” (Bioorg Med Chem, 2017).
